Where two headings read alike, the source gives them in different places.
Columns and labels:
Test in all cases: HotSpot kinase profiling
Format in all cases: biochemical
CK1epsilon = target: T1, CK1epsilon (Homo sapiens, UniProt P49674)
T1 construct: purchased Reaction Biology Corp
How it was run: (§1)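 Percent inhibition, averaged when run more than once and referenced to a DMSO negative control, came from a radioactive filter-binding readout on P81 paper. Reactions of kinase with freshly made substrate and cofactors ran for 2 h at room temperature.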

Haspin = target: T2, Haspin (Homo sapiens, UniProt Q8TF76)
T2 construct: purchased Reaction Biology Corp
T2 sequence (Q8TF76 1-798): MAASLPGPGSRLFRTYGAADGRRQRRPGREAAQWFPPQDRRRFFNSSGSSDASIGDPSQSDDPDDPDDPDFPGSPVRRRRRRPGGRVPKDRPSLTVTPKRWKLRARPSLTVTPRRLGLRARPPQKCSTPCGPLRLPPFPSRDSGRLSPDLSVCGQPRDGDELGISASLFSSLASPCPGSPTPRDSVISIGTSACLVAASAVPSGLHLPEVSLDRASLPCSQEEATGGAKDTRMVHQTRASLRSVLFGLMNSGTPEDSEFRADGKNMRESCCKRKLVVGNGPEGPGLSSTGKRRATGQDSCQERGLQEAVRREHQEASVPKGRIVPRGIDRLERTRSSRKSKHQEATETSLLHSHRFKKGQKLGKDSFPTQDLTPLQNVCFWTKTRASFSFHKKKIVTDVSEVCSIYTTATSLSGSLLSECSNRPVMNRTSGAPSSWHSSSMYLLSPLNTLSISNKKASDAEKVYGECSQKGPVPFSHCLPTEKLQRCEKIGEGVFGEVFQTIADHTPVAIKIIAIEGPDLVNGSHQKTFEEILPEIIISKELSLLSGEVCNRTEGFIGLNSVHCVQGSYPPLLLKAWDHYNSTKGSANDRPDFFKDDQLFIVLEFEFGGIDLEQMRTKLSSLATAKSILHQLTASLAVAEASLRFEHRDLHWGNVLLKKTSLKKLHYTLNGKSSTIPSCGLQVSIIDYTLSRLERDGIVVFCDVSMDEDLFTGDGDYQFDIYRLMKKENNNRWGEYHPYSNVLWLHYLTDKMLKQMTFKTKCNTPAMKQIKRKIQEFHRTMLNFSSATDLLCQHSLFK
How it was run: as §1

LIMK1 = target: T3, LIMK1 (Homo sapiens, UniProt P53667)
T3 construct: purchased Reaction Biology Corp
How it was run: as §1

MARK4 = target: T4, MARK4 (Homo sapiens, UniProt Q96L34)
T4 construct: purchased Reaction Biology Corp
T4 sequence (Q96L34 1-752): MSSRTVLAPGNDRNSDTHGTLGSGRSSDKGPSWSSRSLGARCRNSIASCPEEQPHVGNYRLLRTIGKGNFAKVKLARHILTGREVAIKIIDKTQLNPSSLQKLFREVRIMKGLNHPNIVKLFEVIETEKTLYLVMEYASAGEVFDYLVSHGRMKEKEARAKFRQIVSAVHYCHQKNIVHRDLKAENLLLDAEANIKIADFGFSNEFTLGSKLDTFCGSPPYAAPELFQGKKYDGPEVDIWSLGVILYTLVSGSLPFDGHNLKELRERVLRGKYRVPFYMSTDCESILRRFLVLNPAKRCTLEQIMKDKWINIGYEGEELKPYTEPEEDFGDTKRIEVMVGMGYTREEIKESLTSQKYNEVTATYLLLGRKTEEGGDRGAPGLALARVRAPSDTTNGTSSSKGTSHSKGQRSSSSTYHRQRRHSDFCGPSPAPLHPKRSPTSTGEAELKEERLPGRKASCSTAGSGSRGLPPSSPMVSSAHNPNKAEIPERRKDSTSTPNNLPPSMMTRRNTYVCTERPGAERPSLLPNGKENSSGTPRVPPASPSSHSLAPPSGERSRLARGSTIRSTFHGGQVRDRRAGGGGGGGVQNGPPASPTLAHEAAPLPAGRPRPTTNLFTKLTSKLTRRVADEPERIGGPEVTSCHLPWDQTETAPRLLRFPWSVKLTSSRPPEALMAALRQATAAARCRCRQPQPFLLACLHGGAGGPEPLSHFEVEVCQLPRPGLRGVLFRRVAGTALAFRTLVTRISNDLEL
How it was run: as §1

PIM3 = target: T5, PIM3 (Homo sapiens, UniProt Q86V86)
T5 construct: purchased Reaction Biology Corp
How it was run: as §1

TNIK = target: T6, TNIK (Homo sapiens, UniProt Q9UKE5)
T6 construct: purchased Reaction Biology Corp
How it was run: as §1

[1] = read-out: % Enzyme Activity (relative to DMSO controls) Run 1
[2] = read-out: % Enzyme Activity (relative to DMSO controls) Run 2

T1 sequence (P49674 whole entry): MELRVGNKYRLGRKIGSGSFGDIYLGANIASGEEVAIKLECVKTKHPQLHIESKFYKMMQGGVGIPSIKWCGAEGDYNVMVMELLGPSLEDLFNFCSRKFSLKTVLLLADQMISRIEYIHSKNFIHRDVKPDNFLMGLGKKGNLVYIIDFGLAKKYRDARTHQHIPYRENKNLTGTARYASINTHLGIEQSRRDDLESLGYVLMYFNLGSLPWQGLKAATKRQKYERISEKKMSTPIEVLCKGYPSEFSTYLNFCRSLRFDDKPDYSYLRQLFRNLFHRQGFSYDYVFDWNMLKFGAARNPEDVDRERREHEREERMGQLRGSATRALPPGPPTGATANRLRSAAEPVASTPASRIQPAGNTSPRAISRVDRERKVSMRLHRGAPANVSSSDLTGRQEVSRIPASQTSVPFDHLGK
T6 sequence (Q9UKE5 whole entry): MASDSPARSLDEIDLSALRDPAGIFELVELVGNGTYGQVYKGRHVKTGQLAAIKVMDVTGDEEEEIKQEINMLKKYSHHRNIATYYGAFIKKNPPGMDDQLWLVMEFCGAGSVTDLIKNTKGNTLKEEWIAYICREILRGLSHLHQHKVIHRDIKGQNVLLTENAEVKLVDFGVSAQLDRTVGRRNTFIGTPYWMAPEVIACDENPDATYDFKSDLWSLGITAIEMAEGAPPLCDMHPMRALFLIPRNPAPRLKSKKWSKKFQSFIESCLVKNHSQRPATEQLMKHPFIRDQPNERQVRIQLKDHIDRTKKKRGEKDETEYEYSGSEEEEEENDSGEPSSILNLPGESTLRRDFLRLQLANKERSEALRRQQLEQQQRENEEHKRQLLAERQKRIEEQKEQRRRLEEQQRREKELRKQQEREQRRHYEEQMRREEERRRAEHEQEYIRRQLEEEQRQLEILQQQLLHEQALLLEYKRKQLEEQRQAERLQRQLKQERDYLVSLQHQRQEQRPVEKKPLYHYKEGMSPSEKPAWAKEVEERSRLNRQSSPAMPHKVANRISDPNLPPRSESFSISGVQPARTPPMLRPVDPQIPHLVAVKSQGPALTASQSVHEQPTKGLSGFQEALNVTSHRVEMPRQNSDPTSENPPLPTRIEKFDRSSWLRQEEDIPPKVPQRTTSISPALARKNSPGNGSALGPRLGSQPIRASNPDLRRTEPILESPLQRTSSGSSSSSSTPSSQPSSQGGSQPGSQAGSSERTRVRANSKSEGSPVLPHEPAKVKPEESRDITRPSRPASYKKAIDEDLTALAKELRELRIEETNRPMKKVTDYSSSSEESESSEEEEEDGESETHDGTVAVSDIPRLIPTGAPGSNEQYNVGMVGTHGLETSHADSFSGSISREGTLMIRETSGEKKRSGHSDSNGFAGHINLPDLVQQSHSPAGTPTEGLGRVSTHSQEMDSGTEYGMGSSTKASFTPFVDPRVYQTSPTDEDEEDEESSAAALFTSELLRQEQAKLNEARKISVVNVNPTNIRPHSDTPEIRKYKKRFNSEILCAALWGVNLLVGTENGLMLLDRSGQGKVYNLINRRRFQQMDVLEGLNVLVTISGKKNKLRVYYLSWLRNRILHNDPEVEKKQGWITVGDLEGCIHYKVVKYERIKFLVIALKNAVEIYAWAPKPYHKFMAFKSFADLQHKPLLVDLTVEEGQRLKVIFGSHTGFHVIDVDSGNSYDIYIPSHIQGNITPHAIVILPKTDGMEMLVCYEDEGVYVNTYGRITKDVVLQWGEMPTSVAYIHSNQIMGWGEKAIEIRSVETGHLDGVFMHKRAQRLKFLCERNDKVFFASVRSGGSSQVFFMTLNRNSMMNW
T3 sequence (P53667 whole entry): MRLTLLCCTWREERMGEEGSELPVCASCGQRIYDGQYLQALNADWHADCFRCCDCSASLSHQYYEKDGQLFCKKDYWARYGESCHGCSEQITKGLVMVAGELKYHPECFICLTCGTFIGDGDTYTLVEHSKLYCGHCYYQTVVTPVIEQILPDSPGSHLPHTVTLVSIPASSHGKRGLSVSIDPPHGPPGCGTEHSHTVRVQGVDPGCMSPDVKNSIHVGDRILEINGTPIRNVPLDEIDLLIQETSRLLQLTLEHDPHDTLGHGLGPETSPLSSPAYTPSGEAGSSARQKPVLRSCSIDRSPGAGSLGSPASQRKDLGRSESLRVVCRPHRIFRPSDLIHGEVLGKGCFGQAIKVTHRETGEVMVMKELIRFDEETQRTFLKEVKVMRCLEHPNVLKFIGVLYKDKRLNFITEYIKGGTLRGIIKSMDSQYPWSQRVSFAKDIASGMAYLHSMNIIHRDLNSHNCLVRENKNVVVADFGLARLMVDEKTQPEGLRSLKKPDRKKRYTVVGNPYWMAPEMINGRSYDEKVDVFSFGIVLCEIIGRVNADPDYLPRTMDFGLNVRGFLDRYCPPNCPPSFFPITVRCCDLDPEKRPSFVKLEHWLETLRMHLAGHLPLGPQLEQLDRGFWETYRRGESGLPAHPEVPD

## C=CC(=O)Nc1cccc(Nc2nc(Nc3ccc(OCCOC)c(F)c3)ncc2F)c1 [Compound 2]
CK1epsilon
  inhibition at 3 µM: -1.96%
CK1epsilon; [1]
  remaining activity at 3 µM: 102%
CK1epsilon; [2]
  remaining activity at 3 µM: 102%
Haspin
  inhibition at 3 µM: 9.77%
Haspin; [1]
  remaining activity at 3 µM: 90.6%
Haspin; [2]
  remaining activity at 3 µM: 89.9%
LIMK1
  inhibition at 3 µM: 38.8%
LIMK1; [1]
  remaining activity at 3 µM: 61%
LIMK1; [2]
  remaining activity at 3 µM: 61.4%
MARK4
  inhibition at 3 µM: 18.5%
MARK4; [1]
  remaining activity at 3 µM: 82.2%
MARK4; [2]
  remaining activity at 3 µM: 80.9%
PIM3
  inhibition at 3 µM: -1.83%
PIM3; [1]
  remaining activity at 3 µM: 104%
PIM3; [2]
  remaining activity at 3 µM: 100%
TNIK
  inhibition at 3 µM: 32.7%
TNIK; [1]
  remaining activity at 3 µM: 66.8%
TNIK; [2]
  remaining activity at 3 µM: 67.8%
